Like-named read-outs stand apart in the source and are kept apart here.
Tests used:
Rhipicephalus sanguineus = experiment: In vitro contact test with adult hard ticks (Rhipicephalus sanguineus); settings: read-out: acaricidal activity; for pest or weed control at 0.2 µg/cm2, 0.2 µg/cm2: dose 0.2 μg/cm^2, 48 h; for pest or weed control at 1 µg/cm2, 1 µg/cm2: dose 1 μg/cm^2, 48 h; for pest or weed control at 0.04 µg/cm2, 0.04 µg/cm2: dose 0.04 μg/cm^2, 48 h
How it was run: (§1)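 Acaricidal activity = % ticks dead or moribund after 48 h contact with acetone-deposited compound on vial walls (e.g., 900 ppm solution → 5 μg/cm^2). Ambient conditions for R. sanguineus, 21° C./85% rel. hum. for other species; heat challenge at 45-50° C. separated climbers from moribund ticks.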

Spodoptera litura = experiment: Insecticidal testing against common cutworm; format: in vivo; settings: foliar, 144 h, concentration 100 ppm, cabbage leaf dip, second-stage larvae, after 6 days, read-out: pesticidal rate
Excerpt: Insecticidal Testing Against Common Cutworm (Spodoptera litura)

Plutella xylostella = experiment: Insecticidal testing against diamondback moth; format: in vivo; settings: foliar, 144 h, concentration 100 ppm, cabbage leaf dip, third-stage larvae, after 6 days, read-out: pesticidal rate
Excerpt: Insecticidal Testing Against Diamondback Moth (Plutella xylostella)

Ctenocephalides felis [1] = experiment: Systemic treatment in-vivo test with cat flea on rats; settings: Ctenocephalides felis, ip, intraperitoneal injection, 10 mg/kg
Protocol: Systemic Treatment In-Vivo Test with American Dog Tick Nymph and Cat Flea on Rats
Type of study and overall study design: The method is a randomized non-blinded efficacy study in accordance with European animal welfare requirements. Rats (Rattus norvegicus) were randomized based on pre-treatment flea counts. The efficacy of treatment was determined by comparison of the flea and tick counts of different treatment groups versus the placebo-treated control group. The experimental unit was the individual study animal. Method and route of administration: The compound was applied in a suitable solvent and carrier (more specifically, added to glycerol formal; in case of poorly soluble compounds, a solvent mixture with up to 25% by volume of N-methyl pyrrolidone may be used.) considering the individual body weight as an intraperitoneal injection.
Experimental infestation: On the day of treatment and weekly thereafter, 30 ticks (D. variabilis nymphs) were released onto the back of each rat, and 30 fleas (C. felis) were released onto the back of each rat 24 h later.
Tick and Flea counting: Rats were thoroughly examined and ticks and fleas were manually removed 48 h (±4 h) after tick infestation and 24 h after flea infestation. Live fleas and live attached engorged ticks were counted. In non-evident cases, engorgement status was evaluated by squeezing the tick on a filter paper to find traces of blood as sign for engorgement.

Ctenocephalides felis [2] = experiment: In vitro contact test with fleas; settings: read-out: insecticidal activity; for pest or weed control at 0.2 µg/cm2, 0.2 µg/cm2: dose 0.2 μg/cm^2, dead or moribund fleas after 48 h; for pest or weed control at 1 µg/cm2, 1 µg/cm2: dose 1 μg/cm^2, dead or moribund fleas after 48 h; for pest or weed control at 0.04 µg/cm2, 0.04 µg/cm2: dose 0.04 μg/cm^2, dead or moribund fleas after 48 h
How it was run: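 Activity is the percentage of fleas dead or moribund at 48 h, judged by immobility or uncoordinated movement after tapping. Tubes were coated by evaporating acetone solutions (900 ppm gives 5 μg/cm^2), then held 5-10 adult fleas of both sexes at room temperature and ambient humidity.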

[3] = system: Rhipicephalus (Boophilus) microplus; experiment: In vitro injection test with Rhipicephalus (Boophilus) microplus (BOOPMI Inj); settings: 168 h, laid fertile eggs after 7 days, read-out: acaricidal activity; for pest or weed control at 32 ng: dose 0.032 μg/animal injected; for pest or weed control at 0.00016 mg: dose 0.16 μg/animal injected; for pest or weed control at 0.0008 mg: dose 0.8 μg/animal injected; for pest or weed control at 6.4 ng: dose 0.0064 μg/animal injected
How it was run: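 Five engorged adult females each get a 1 μl abdominal injection of compound dissolved and diluted in DMSO. Kept 7 days at 28° C./85% rel. hum.; percent activity rates egg laying and egg fertility (0% all fertile, 100% none laid or infertile).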

Ctenocephalides felis [4] = experiment: Ctenocephalides felis in-vitro feeding test with fleas (CTECFE oral); settings: 48 hours, read-out: insecticidal feeding activity; for pest or weed control at 0.032 ppm: dose 0.032 ppm in citrated cattle blood; for pest or weed control at 0.16 ppm: dose 0.16 ppm in citrated cattle blood; for pest or weed control at 0.8 ppm: dose 0.8 ppm in citrated cattle blood; for pest or weed control at 4 ppm: dose 4 ppm in citrated cattle blood; for pest or weed control at 0.0064 ppm: dose 0.0064 ppm in citrated cattle blood
How it was run: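 Scored as percent fleas killed (0–100%) 48 hours after feeding began. Compound, dissolved in DMSO and diluted into citrated cattle blood, was offered via a parafilm membrane to roughly 20 adult male and female C. felis at about 37° C.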

Laodelphax striatellus = experiment: Insecticidal testing against small brown planthopper; format: in vivo; settings: 144 h, concentration 100 ppm, sprayed rice seedlings, after 6 days, read-out: pesticidal rate
How it was run: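 Acetone solution of compound at a set concentration sprayed onto rice seedlings, air-dried, then exposed to 10 planthoppers (one group). Held at 25° C; survival rate recorded after 6 days.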

Dermacentor variabilis = experiment: In vitro contact test with adult hard ticks (Dermacentor variabilis); settings: read-out: acaricidal activity; for pest or weed control at 0.2 µg/cm2, 0.2 µg/cm2: dose 0.2 μg/cm^2, 48 h; for pest or weed control at 1 µg/cm2, 1 µg/cm2: dose 1 μg/cm^2, 48 h
How it was run: as §1

Ixodes ricinus = experiment: In vitro contact test with adult hard ticks (Ixodes ricinus); settings: read-out: acaricidal activity; for pest or weed control at 5 µg/cm2, 5 µg/cm2: dose 5 μg/cm^2, 48 h; for pest or weed control at 0.2 µg/cm2, 0.2 µg/cm2: dose 0.2 μg/cm^2, 48 h; for pest or weed control at 1 µg/cm2, 1 µg/cm2: dose 1 μg/cm^2, 48 h
How it was run: as §1

Amblyomma americanum = experiment: In vitro contact test with hard ticks (Amblyomma americanum nymphs); settings: read-out: acaricidal activity; for pest or weed control at 1 µg/cm2, 1 µg/cm2: dose 1 μg/cm^2, 48 h; for pest or weed control at 0.04 µg/cm2, 0.04 µg/cm2: dose 0.04 μg/cm^2, 48 h; for pest or weed control at 0.2 µg/cm2, 0.2 µg/cm2: dose 0.2 μg/cm^2, 48 h
How it was run: as §1

[5] = SD 2, read-out: Geometric mean percent reduction in live flea (Ctenocephalides felis) counts compared to untreated control rats
[6] = SD 9, read-out: Geometric mean percent reduction in live flea (Ctenocephalides felis) counts compared to untreated control rats
[7] = SD 16, read-out: Geometric mean percent reduction in live flea (Ctenocephalides felis) counts compared to untreated control rats
[8] = SD 23, read-out: Geometric mean percent reduction in live flea (Ctenocephalides felis) counts compared to untreated control rats

SMILES | pest or weed control at 0.2 µg/cm2, 0.2 µg/cm2 (Rhipicephalus sanguineus) | pest or weed control at 1 µg/cm2, 1 µg/cm2 (Rhipicephalus sanguineus) | pest or weed control at 100 ppm (Spodoptera litura) | pest or weed control at 100 ppm (Plutella xylostella) | pest or weed control at 0.2 µg/cm2, 0.2 µg/cm2 (Ctenocephalides felis [2]) | pest or weed control at 1 µg/cm2, 1 µg/cm2 (Ctenocephalides felis [2]) | pest or weed control at 32 ng [3] | pest or weed control at 0.00016 mg [3] | pest or weed control at 0.0008 mg [3] | pest or weed control at 0.032 ppm (Ctenocephalides felis [4]) | pest or weed control at 0.16 ppm (Ctenocephalides felis [4]) | pest or weed control at 0.8 ppm (Ctenocephalides felis [4]) | pest or weed control at 4 ppm (Ctenocephalides felis [4]) | pest or weed control at 100 ppm (Laodelphax striatellus) | pest or weed control at 0.2 µg/cm2, 0.2 µg/cm2 (Dermacentor variabilis) | pest or weed control at 1 µg/cm2, 1 µg/cm2 (Dermacentor variabilis) | pest or weed control at 5 µg/cm2, 5 µg/cm2 (Ixodes ricinus) | pest or weed control at 1 µg/cm2, 1 µg/cm2 (Amblyomma americanum) | pest or weed control at 0.2 µg/cm2, 0.2 µg/cm2 (Ixodes ricinus) | pest or weed control at 1 µg/cm2, 1 µg/cm2 (Ixodes ricinus) | also measured
CN(C(=O)c1ccc(F)cc1)c1cccc(C(=O)Nc2c(I)cc(C(F)(C(F)(F)F)C(F)(F)F)cc2S(=O)(=O)C(F)(F)F)c1F [Compound 70, 2-fluoro-3-(4-fluoro-N-methylbenzamido)-N-(2-iodo-4-(perfluoropropan-2-yl)-6-((trifluoromethyl)sulfonyl)phenyl)benzamide] | 90% | 90% | ≥ 70% | ≥ 70% | 95% | 95% | 100% | 100% | 100% | 95% | 95% | 95% | 95% | ≥ 70% |  |  |  |  |  |  | inhibition in vivo at 10 mg/kg (Ctenocephalides felis [1]; [5]): 99%; inhibition in vivo at 10 mg/kg (Ctenocephalides felis [1]; [6]): 100%; inhibition in vivo at 10 mg/kg (Ctenocephalides felis [1]; [7]): 99%; inhibition in vivo at 10 mg/kg (Ctenocephalides felis [1]; [8]): 49%; inhibition in vivo at 10 mg/kg (Ctenocephalides felis [1]; SD 30, read-out: Geometric mean percent reduction in live flea (Ctenocephalides felis) counts compared to untreated control rats): 7%
CN(C(=O)c1ccc(F)cc1)c1cccc(C(=O)Nc2c(Br)cc(C(F)(C(F)(F)F)C(F)(F)C(F)(F)F)cc2C(F)(F)F)c1F (stereo not shown) [Compound 93] |  |  | ≥ 70% | ≥ 70% | 95% | 95% | 100% | 100% | 100% | 95% | 95% | 95% | 95% | ≥ 70% | 90% | 90% | 90% | 90% |  |  | inhibition in vivo at 10 mg/kg (Ctenocephalides felis [1]; [5]): 100%; inhibition in vivo at 10 mg/kg (Ctenocephalides felis [1]; [6]): 97%; inhibition in vivo at 10 mg/kg (Ctenocephalides felis [1]; [7]): 68%; inhibition in vivo at 10 mg/kg (Ctenocephalides felis [1]; [8]): 14%; pest or weed control at 0.04 µg/cm2, 0.04 µg/cm2 (Ctenocephalides felis [2]): 95%
O=C(Nc1cccc(C(=O)Nc2c(Br)cc(C(F)(C(F)(F)F)C(F)(F)C(F)(F)F)cc2OC(F)F)c1F)c1ccc(F)cc1 (stereo not shown) [Compound 106] | 90% | 90% | ≥ 70% | ≥ 70% | 95% | 95% | 100% | 100% | 100% | 95% | 95% | 95% | 95% | ≥ 70% | 90% | 90% | 90% | 90% | 90% | 90% | pest or weed control at 0.04 µg/cm2, 0.04 µg/cm2 (Rhipicephalus sanguineus): 90%; pest or weed control at 0.04 µg/cm2, 0.04 µg/cm2 (Dermacentor variabilis; dose 0.04 μg/cm^2, 48 h): 90%; pest or weed control at 0.04 µg/cm2, 0.04 µg/cm2 (Ctenocephalides felis [2]): 95%; pest or weed control at 6.4 ng [3]: 100%; pest or weed control at 0.0064 ppm (Ctenocephalides felis [4]): 95%; pest or weed control at 0.04 µg/cm2, 0.04 µg/cm2 (Amblyomma americanum): 90%; pest or weed control at 0.2 µg/cm2, 0.2 µg/cm2 (Amblyomma americanum): 90%
O=C(Nc1cccc(C(=O)Nc2c(I)cc(C(F)(C(F)(F)F)C(F)(F)F)cc2OC(F)F)c1F)c1ccc(C(F)(F)F)nc1 [Compound 108] | 90% | 90% | ≥ 70% | ≥ 70% | 95% | 95% | 100% | 100% | 100% | 95% | 95% | 95% | 95% | ≥ 70% | 90% | 90% | 90% | 90% | 90% | 90% | pest or weed control at 0.04 µg/cm2, 0.04 µg/cm2 (Rhipicephalus sanguineus): 90%; pest or weed control at 0.0064 ppm (Ctenocephalides felis [4]): 95%; pest or weed control at 0.2 µg/cm2, 0.2 µg/cm2 (Amblyomma americanum): 90%
CN(C(=O)c1ccc(F)c(F)c1)c1cccc(C(=O)Nc2c(I)cc(C(F)(C(F)(F)F)C(F)(F)F)cc2OC(F)F)c1F [Compound 109] |  |  | ≥ 70% | ≥ 70% | 95% | 95% | 100% | 100% | 100% | 95% | 95% | 95% | 95% | ≥ 70% | 90% | 90% | 90% | 90% | 90% | 90% | pest or weed control at 0.04 µg/cm2, 0.04 µg/cm2 (Rhipicephalus sanguineus): 90%; pest or weed control at 0.04 µg/cm2, 0.04 µg/cm2 (Ctenocephalides felis [2]): 95%; pest or weed control at 6.4 ng [3]: 100%
O=C(Nc1cccc(C(=O)Nc2c(I)cc(C(F)(C(F)(F)F)C(F)(F)F)cc2OC(F)F)c1F)c1ccc(F)c(F)c1 [Compound 110] | 90% | 90% | ≥ 70% | ≥ 70% | 95% | 95% | 100% | 100% | 100% | 95% | 95% | 95% | 95% | ≥ 70% | 90% | 90% | 90% | 90% | 90% | 90% | pest or weed control at 0.04 µg/cm2, 0.04 µg/cm2 (Amblyomma americanum): 90%; pest or weed control at 0.2 µg/cm2, 0.2 µg/cm2 (Amblyomma americanum): 90%
